In paper PMC6886737 (Bioorganic & medicinal chemistry letters, 2019):
Values belong to the compound of their own block, whether it stands above or below them.

Experiments:
[1] = biological target: T1, CDK14 (Homo sapiens, UniProt O94921); assay: Biotin JNK-IN-7 pull-down assay, cellular CDK14 engagement; conditions: for concentration at which CDK14 pulldown is blocked / effects shown / activity in the cellular pull-down assay: cells treated 4 h
Target sequence in this assay (O94921 whole entry): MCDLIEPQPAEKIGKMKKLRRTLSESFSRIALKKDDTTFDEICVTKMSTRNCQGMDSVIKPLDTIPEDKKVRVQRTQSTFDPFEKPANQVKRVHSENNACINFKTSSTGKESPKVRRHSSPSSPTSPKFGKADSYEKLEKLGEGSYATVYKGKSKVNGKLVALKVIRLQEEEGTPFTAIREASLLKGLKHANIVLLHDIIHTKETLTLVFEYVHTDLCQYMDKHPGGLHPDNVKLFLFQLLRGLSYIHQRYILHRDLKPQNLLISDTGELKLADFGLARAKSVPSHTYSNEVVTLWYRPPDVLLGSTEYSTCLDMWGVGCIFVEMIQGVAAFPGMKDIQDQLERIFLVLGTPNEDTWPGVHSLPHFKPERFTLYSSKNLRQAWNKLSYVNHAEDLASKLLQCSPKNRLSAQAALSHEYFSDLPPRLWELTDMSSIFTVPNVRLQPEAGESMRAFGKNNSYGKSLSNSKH

[2] = biological target: T1, CDK14; assay: LanthaScreen CDK14 binding assay
Target sequence in this assay (O94921 whole entry): as above
Target sequence in this assay (Q8ND76 whole entry partner): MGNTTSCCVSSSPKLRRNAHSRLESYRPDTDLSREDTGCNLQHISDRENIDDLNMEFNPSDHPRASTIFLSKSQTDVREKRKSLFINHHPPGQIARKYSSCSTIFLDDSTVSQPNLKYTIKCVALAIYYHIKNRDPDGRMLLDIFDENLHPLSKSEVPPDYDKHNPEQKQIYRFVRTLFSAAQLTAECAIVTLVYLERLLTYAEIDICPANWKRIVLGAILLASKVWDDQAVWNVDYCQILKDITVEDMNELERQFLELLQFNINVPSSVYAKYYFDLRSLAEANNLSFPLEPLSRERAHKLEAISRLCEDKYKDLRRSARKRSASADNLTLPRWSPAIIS

[3] = tested on: HCT116 cell line; assay: CellTiter-Glo proliferation assay; type: cell-based
[4] = biological target: CDK2 (Homo sapiens, UniProt P24941); assay: KiNativ profiling; type: cell-based; conditions: read-out: CDK2 percent inhibition relative to DMSO
[5] = biological target: CDK16 (Homo sapiens, UniProt Q00536); assay: KiNativ profiling; type: cell-based; conditions: read-out: CDK16 percent inhibition relative to DMSO
Chain of CDK16 (Q00536 whole entry): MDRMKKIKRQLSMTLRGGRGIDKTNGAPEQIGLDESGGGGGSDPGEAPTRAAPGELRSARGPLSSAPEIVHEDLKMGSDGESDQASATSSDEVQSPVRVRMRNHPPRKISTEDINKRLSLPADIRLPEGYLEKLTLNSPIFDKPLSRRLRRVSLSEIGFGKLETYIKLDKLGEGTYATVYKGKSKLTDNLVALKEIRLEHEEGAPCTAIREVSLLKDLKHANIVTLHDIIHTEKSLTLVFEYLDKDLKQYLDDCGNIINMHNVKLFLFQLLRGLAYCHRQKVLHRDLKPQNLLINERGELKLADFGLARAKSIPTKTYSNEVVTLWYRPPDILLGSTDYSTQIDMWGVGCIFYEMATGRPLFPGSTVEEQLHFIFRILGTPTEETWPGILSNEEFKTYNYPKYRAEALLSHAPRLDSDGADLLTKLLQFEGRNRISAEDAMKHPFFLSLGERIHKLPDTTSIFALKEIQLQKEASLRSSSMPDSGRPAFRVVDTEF

[6] = biological target: CDK10 (Homo sapiens, UniProt Q15131); assay: KiNativ profiling; type: cell-based; conditions: read-out: CDK10 percent inhibition relative to DMSO
Chain of CDK10 (Q15131 whole entry): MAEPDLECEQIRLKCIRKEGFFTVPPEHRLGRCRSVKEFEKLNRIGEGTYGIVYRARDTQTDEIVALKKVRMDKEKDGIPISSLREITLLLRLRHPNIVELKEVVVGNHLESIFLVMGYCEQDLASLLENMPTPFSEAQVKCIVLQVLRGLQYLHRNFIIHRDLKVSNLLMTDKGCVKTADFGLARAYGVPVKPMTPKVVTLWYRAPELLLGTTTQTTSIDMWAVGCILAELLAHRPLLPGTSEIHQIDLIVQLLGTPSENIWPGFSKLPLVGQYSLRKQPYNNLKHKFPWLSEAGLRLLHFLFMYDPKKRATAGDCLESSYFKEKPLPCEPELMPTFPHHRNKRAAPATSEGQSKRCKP

SMILES: O=C(NC1CCNCC1)c1n[nH]cc1NC(=O)c1c(Cl)cccc1Cl [AT7519, N-(4-piperidinyl)-4-(2,6-dichlorobenzoylamino)-1H-pyrazole-3-carboxamide, reference compound]
CDK14 cellular engagement screen result ([1]; 1 μM, screen of library of reported CDK inhibitors): efficient CDK14 inhibitor

concentration at which CDK14 pulldown is blocked / effects shown [1]: 500 to 1000 nM
SMILES: C=CC(=O)Nc1cccc(C(=O)N2CCC(NC(=O)c3n[nH]cc3NC(=O)c3c(Cl)cccc3Cl)CC2)c1.O=C(O)C(F)(F)F [Compound 27]

concentration at which CDK14 pulldown is blocked / effects shown [1]: 500 to 1000 nM
SMILES: CN(C)C/C=C/C(=O)Nc1cccc(C(=O)Nc2ccc(NC(=O)c3n[nH]cc3NC(=O)c3c(Cl)cccc3Cl)cc2)c1.O=C(O)C(F)(F)F [Compound 46]

SMILES: C=CC(=O)Nc1cccc(C(=O)Nc2ccc(NC(=O)c3n[nH]cc3NC(=O)c3c(Cl)cccc3Cl)c(C)c2)c1.O=C(O)C(F)(F)F [Compound 47]
CDK14 binding potency [2]: not tolerated by CDK14

SMILES: Cc1cc(NC(=O)c2cccc(NC(=O)/C=C/CN(C)C)c2)ccc1NC(=O)c1n[nH]cc1NC(=O)c1c(Cl)cccc1Cl.O=C(O)C(F)(F)F [Compound 48]
CDK14 binding potency [2]: not tolerated by CDK14

SMILES: CN(C)CC/C=C/C(=O)Nc1ccc(N2CCC(NC(=O)c3n[nH]cc3NC(=O)c3c(Cl)cccc3Cl)CC2)cc1.O=C(O)C(F)(F)F [Compound 54]
HCT116 toxicity [3]: low HCT116 toxicity

activity in the cellular pull-down assay [1]: not active, or weakly active
SMILES: CN(C)CC/C=C/C(=O)Nc1cccc(N2CCC(NC(=O)c3n[nH]cc3NC(=O)c3c(Cl)cccc3Cl)CC2)c1.O=C(O)C(F)(F)F [Compound 56]
HCT116 toxicity [3]: low HCT116 toxicity

activity in the cellular pull-down assay [1]: not active, or weakly active
SMILES: CN(C)CC/C=C/C(=O)Nc1ccc(S(=O)(=O)N2CC[C@@H](NC(=O)c3n[nH]cc3NC(=O)c3c(Cl)cccc3Cl)C2)cc1.O=C(O)C(F)(F)F [Compound 68]

inhibition at 1 µM [4]: > 75% | concentration for complete inhibition of CDK14 pull-down [1]: below 1 μM | inhibition at 1 µM [5]: > 75% | inhibition at 1 µM [6]: > 75%
SMILES: CN(C)C/C=C/C(=O)Nc1cccc(S(=O)(=O)N2CCC(NC(=O)c3n[nH]cc3NC(=O)c3c(Cl)cc(Cl)cc3Cl)CC2)c1.O=C(O)C(F)(F)F [Compound 100]

CDK14 binding potency [2]: potent CDK14 inhibition
SMILES: CN(C)C/C=C/C(=O)Nc1cccc(S(=O)(=O)N2CCC(NC(=O)c3n[nH]cc3NC(=O)c3ccccc3)CC2)c1.O=C(O)C(F)(F)F [Compound 107]
HCT116 toxicity [3]: reduced HCT116 toxicity
